According to patent US10016432B2 (Legacy Emanuel Hospital & Health Center, priority 2016, dated 2018):
Several values for one entry are separate records, joined by “and”; a condition that tells them apart may be missing. Identical values can stand only once. Entries after “also recorded” stand apart in the source; their conditions may differ.

Assays:
hAdK [1] = target: T1, hAdK (Homo sapiens, UniProt P55263); conditions: read-out: Km as substrate of hAdK; cited from earlier work
T1 construct: purchased
T1 sequence (P55263 whole entry): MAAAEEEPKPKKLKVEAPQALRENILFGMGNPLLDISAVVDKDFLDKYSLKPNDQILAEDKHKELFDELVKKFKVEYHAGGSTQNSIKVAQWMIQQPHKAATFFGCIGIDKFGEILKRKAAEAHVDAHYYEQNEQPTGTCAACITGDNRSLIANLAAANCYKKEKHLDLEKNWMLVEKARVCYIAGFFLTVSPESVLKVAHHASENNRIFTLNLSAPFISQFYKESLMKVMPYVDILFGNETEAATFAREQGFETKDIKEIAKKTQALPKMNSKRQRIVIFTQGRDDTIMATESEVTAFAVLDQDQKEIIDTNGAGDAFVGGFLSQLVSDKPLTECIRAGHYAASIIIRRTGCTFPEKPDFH

[2] = polarity judged by tendency to dissolve in organic solvents; format: physicochemical; conditions: based on tendency to dissolve in organic solvents
Source text: The bioavailability and the in vivo activity of these inhibitors remain to be determined. Other nucleoside derivatives were protective in seizure models when administered peripherally. […] Among the new (S)-methanocarba AdK inhibitors, 5′-deoxy analogue 38a and especially the fluoro analogues 38b and 38c appear to be the least polar, based on their tendency to dissolve in organic solvents.

human P2Y2 = target: T2, human P2Y2 (Homo sapiens, UniProt P41231); assay: calcium transients, P2Y2 in 1321N1 astrocytoma cells; format: cell-based; conditions: 10 μM
T2 construct: expressed in transfected cells; host or cells: 1321N1 astrocytoma cells
T2 sequence (P41231 whole entry): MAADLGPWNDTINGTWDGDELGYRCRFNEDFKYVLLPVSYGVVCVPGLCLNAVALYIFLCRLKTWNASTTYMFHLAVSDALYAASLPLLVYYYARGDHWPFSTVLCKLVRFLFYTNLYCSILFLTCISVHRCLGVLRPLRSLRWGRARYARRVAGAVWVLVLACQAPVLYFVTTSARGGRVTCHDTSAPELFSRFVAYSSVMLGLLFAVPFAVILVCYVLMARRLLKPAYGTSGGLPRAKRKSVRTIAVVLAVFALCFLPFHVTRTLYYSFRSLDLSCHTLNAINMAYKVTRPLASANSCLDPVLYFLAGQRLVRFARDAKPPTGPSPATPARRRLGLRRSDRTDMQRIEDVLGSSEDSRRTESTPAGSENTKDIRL
Source text: (§1) It is possible that transient treatment with AdK inhibitors would have long-lasting therapeutic benefits for treatment of CNS disorders, not only by raising the basal level of AR activation but also through epigenetic reprogramming. […] SAH in turn inhibits DNA methyltransferases through product inhibition. Because the epigenetic effects related to changes in the DNA methylation status would persist, it might be possible to reduce the duration of drug administration, thus avoiding toxicities associated with prolonged, chronic dosing. A transient dosing regimen might also avoid possible side effects, such as liver toxicity. Compound 38a was submitted to the Psychoactive Drug Screening Program (PDSP) for screening at 45 receptors, channels and transporters. […] Nevertheless, the offtarget interactions of the present set of compounds would have to be examined more extensively.

[3] = system: Hippocampal DNA methylation; assay: hippocampal / brain DNA methylation in treated mice; format: in vivo, Swiss Webster mice; conditions: 3.1 mg/kg i.p., 3 doses every 12 hours, 1 hour after 3rd dose, vs controls
Procedure: (§2) Epigenetic activity in the brain. […] Tissue was harvested 1 hour after the 3rd dose.

[4] = target: T3, protease-activated receptor (PAR)1 (Homo sapiens, UniProt P25116); assay: PAR1 agonist/antagonist test in mouse KOLF cells; format: cell-based; conditions: 10 μM
T3 construct: expressed in transfected cells; host or cells: mouse KOLF cells
T3 sequence (P25116 22-425): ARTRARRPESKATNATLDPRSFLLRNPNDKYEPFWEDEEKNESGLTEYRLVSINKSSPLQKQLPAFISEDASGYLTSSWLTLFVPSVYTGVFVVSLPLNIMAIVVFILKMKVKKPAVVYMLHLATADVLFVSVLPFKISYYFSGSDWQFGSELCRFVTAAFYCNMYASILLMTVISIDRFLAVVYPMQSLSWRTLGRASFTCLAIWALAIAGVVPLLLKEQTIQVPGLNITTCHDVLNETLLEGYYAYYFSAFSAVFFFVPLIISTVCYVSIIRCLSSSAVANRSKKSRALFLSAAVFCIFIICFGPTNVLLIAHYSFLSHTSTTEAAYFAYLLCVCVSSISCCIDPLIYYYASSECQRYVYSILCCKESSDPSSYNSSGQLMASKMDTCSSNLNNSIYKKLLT
Source text: as §1

human P2Y4 = target: T4, human P2Y4 (Homo sapiens, UniProt P51582); assay: calcium transients, P2Y4 in 1321N1 astrocytoma cells; format: cell-based; conditions: 10 μM
T4 construct: expressed in transfected cells; host or cells: 1321N1 astrocytoma cells
T4 sequence (P51582 whole entry): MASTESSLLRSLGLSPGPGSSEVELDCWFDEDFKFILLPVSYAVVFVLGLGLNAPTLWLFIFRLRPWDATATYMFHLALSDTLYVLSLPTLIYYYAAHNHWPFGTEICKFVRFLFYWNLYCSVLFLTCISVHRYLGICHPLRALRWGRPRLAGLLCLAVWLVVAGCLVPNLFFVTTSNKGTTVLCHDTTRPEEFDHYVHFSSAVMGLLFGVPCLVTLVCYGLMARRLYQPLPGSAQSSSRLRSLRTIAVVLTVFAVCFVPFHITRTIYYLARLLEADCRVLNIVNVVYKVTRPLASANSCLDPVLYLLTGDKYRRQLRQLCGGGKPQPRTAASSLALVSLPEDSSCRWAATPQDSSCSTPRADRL
Source text: as §1

ADK-L cells = assay: DNA methylation (5 mC ELISA) in ADK-L cells; design: reduction of DNA methylation in ADK-L cells: dose or concentration left out as unconfirmed; conditions: 24 hours
Procedure: The in vitro IC50 for each conventional ADK inhibitor was selected as the treatment dose. […] Purified genomic DNA (100 ng) was run on a 5-methylcytosine (5 mC) ELISA. Data shown in FIG. 11 are represented as the mean±SEM (n=8-9) and analyzed by one-way ANOVA followed by Tukey's multiple comparisons test (C) or Krus-kal-Wallis test followed by uncorrected Dunn's test with all comparisons relative to ADK-L vehicle (D).

[5] = side effects: mouse activity in an open field; format: in vivo, mice; conditions: epigenetically active dose, i.p.
Procedure: Side effects were indexed by mouse activity in an open field for 20 minutes following a single i.p. injection of vehicle, 5-ITU or compound 38a. […] Data are presented as the mean±SEM and analyzed by one-way ANOVA then uncorrected Fisher's LSD test with all comparisons relative to vehicle or Kruskal-Wallis then Dunn's multiple comparisons.

ADK-S cells = assay: DNA methylation in ADK-S cells
ADK-null cells = assay: DNA methylation in ADK-null cells (off-target); format: cell-based; conditions: vs vehicle
Source text: To test for nonspecific activities of ADK inhibitors on DNA methylation, we tested our set of inhibitors on ADK-null cells, which are hypomethylated and can be used to identify treatments that increase DNA methylation (whereas ADK-L cells display a hypermethylated ceiling effect).

human P2Y11 = target: T5, human P2Y11 (Homo sapiens, UniProt Q96G91); assay: calcium transients, P2Y11 in 1321N1 astrocytoma cells; format: cell-based; conditions: 10 μM
T5 construct: expressed in transfected cells; host or cells: 1321N1 astrocytoma cells
T5 sequence (Q96G91 1-374): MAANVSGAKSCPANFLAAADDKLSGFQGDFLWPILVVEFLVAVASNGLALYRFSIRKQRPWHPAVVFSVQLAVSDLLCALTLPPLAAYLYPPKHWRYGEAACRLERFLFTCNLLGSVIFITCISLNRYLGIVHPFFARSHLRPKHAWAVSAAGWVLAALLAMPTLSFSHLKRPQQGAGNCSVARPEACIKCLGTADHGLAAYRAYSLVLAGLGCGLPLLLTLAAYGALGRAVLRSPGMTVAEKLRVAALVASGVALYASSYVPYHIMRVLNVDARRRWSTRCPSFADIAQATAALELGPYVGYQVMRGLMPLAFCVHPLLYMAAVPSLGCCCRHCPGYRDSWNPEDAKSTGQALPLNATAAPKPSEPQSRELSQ
Source text: as §1

[6] = system: 45 receptors, channels and transporters; assay: PDSP screening at 45 receptors, channels and transporters (other off-target sites); format: binding; conditions: 10 μM
Source text: as §1

[7] = target: human 5HT7 (serotonin) receptor (Homo sapiens, UniProt P34969); assay: PDSP radioligand binding, 5HT7; conditions: read-out: Ki, inhibition of radioligand binding
Sequence of human 5HT7 (serotonin) receptor (P34969 whole entry): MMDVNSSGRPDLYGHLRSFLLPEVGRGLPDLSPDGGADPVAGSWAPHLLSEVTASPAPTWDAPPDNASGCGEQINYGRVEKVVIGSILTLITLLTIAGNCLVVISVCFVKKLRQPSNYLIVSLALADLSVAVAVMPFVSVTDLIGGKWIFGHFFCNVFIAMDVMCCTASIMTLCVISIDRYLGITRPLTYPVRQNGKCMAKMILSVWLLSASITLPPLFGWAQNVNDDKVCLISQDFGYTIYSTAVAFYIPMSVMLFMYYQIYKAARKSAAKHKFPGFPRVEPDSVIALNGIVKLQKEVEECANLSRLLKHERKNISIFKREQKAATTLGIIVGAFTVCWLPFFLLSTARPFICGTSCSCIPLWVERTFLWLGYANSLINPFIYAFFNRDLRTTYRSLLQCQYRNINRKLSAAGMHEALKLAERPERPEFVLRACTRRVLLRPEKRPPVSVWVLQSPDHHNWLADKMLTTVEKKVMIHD
Source text: as §1

human P2Y1 = target: T6, human P2Y1 (Homo sapiens, UniProt P47900); assay: calcium transients, P2Y1 in 1321N1 astrocytoma cells; format: cell-based; conditions: 10 μM
T6 construct: expressed in transfected cells; host or cells: 1321N1 astrocytoma cells
T6 sequence (P47900 whole entry): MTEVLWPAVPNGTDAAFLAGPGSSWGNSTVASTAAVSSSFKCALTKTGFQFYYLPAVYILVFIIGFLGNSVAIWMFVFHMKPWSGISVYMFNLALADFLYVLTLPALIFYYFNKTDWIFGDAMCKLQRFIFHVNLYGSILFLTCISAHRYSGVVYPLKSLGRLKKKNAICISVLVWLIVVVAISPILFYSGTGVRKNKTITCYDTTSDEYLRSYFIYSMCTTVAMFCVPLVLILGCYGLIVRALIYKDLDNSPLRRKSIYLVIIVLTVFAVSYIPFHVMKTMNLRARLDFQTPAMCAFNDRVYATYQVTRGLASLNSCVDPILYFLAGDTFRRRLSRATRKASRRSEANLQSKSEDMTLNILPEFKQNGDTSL
Source text: as §1

DNMT activity = DNMT activity in brain nuclear protein extracts of treated mice; format: in vivo, Swiss Webster mice; conditions: 3.1 mg/kg i.p., 3 doses every 12 hours, 1 hour after 3rd dose, vs vehicle
Procedure: as §2

hAdK [8] = target: T1, hAdK; assay: commercial nonisotopic spectrophotometric hAdK kinetic activity assay (340 nm, inosine as substrate); format: biochemical
Procedure: The nucleoside derivatives were tested for inhibitory activity at hAdK using a commercial, nonisotopic assay for the measurement of hAdK kinetic activity based on continuous monitoring of enzymatic activity at 340 nm (appearance of reduced nicotinamide-adenine dinucleotide from a coupled enzymatic reaction). The hAdK-catalyzed phosphorylation of inosine to inosine 5′-monophosphate is coupled to the inosine 5′-monophosphate dehydrogenase-dependent oxidation of the product. […] Percent inhibition of hAdK activity was calculated by determining the slope of the hAdK reaction during the linear phase of the enzymatic reaction (first 40 min) (see Table 1, below). […] Each inhibitor was analyzed at the following concentrations (μM): of 50, 20, 1, 0.50, 0.10, 0.020 and 0.010.

**Q.** With Nc1ncnc2c1ncn2[C@@H]1O[C@H](CO)[C@@H](O)[C@H]1O [adenosine] as the compound, how does the Km (hAdK [1]) read?
**A.** The Km was 0.7 µM.

**Q.** For C[C@@H]1[C@@H](O)[C@@H](O)[C@@]2(n3cc(-c4ccccc4)c4c(Nc5ccccc5)ncnc43)C[C@@H]12 [Compound 38a], which polarity [2] is on record?
**A.** The polarity was “least polar”.

**Q.** And the “agonist or antagonist activity at P2Y2” value (human P2Y2)?
**A.** The value was “inactive”.

**Q.** And the “hippocampal (brain) DNA methylation levels” value [3]?
**A.** The value was “reduced”.

**Q.** And the “hippocampal (brain) DNA methylation levels” value ([3]; listed as 38A)?
**A.** Its value is “reduced; also recorded: reduces DNA methylation in the hippocampus”.

**Q.** What about the “agonist or antagonist activity at PAR1” value [4] of the same compound?
**A.** Its value is “inactive”.

**Q.** What about the “agonist or antagonist activity at P2Y4” value (human P2Y4) of the same compound?
**A.** Its value is “inactive”.

**Q.** What about the “effect on DNA methylation in ADK-L cells, in words” value (ADK-L cells; 55 and 38a at 26 nM, known inhibitors at their IC50) of the same compound?
**A.** The value was “reduces DNA methylation specifically in ADK-L cells”.

**Q.** What about the “reduction of DNA methylation in ADK-L cells” value (ADK-L cells; […] nM (equimolar), vs ADK-L vehicle) of the same compound?
**A.** Its value is greater than 50%.

**Q.** And the “sedation / sedative side effects” value [5]?
**A.** Its value is “not associated with any overt signs of sedation”.

**Q.** And the “effect on DNA methylation in ADK-S cells” value (ADK-S cells)?
**A.** Its value is “without any off-target effects”.

**Q.** What about the “effect on DNA methylation in ADK-null cells (non-specific)” value (ADK-null cells) of the same compound?
**A.** The value was “greater specificity”.

**Q.** What about the “effect on DNA methylation in ADK-null cells (non-specific)” value (ADK-null cells; listed as 38A) of the same compound?
**A.** Its value is “no effect on DNA methylation; also recorded: without any off-target effects”.

**Q.** And the “agonist or antagonist activity at P2Y11” value (human P2Y11)?
**A.** The value was “inactive”.

**Q.** And the “inhibition of binding at the other off-target sites” value [6]?
**A.** The value was less than 50%.

**Q.** And the Ki [7]?
**A.** Its Ki is 710 nM.

**Q.** What about the “agonist or antagonist activity at P2Y1” value (human P2Y1) of the same compound?
**A.** Its value is “inactive”.

**Q.** And the “DNMT activity in brain nuclear protein extracts” value (DNMT activity)?
**A.** Its value is “significantly reduced”.

**Q.** What about the “DNMT activity in brain nuclear protein extracts” value (DNMT activity; listed as 38A) of the same compound?
**A.** The value was “reduced”.

**Q.** What about the “hAdK inhibition, in words” value (hAdK [8]) of the same compound?
**A.** The value was “commensurate with 2 at most concentrations”.

**Q.** What about the “concentration at which inhibition begins to vary significantly from 2” value (hAdK [8]; Bonferroni post hoc vs 2) of the same compound?
**A.** Its value is “never significantly varied from 2”.

**Q.** What about the “potency relative to reference compound 2” value (hAdK [8]; hAdK inhibition) of the same compound?
**A.** Its value is “approximately two-fold less potent”.

**Q.** And the IC50 (hAdK [8]; hAdK, inosine as substrate, read-out: IC50 for hAdK)?
**A.** The IC50 was < 100 nM and 88 nM.
